Laboratory results taken from US11693017B2, “Small molecule biosensors” (President and Fellows of Harvard College, priority 2015, dated 2023).

Assays:
[1] = test system: degron-G-PRO1-V in HIS3 reporter strain PJ69-4a; assay: Yeast spotting (HIS3 growth) assay; type: cell-based, Saccharomyces cerevisiae; settings: -his media
Procedure: Yeast strain PJ69-4a transformed with p16C plasmids containing degron G-DIG-V variants were first inoculated from colonies into SD-ura media and grown at 30° C. overnight (16 h). 1 mL of each culture was pelleted by centrifugation (3000 rcf, 2 min), resuspended in 1 mL of fresh SD-ura and the OD660 was measured. Each culture was then diluted in SD-ura media to an OD660=0.2 and incubated at 30° C. for 4-6 hrs. 1 mL of each culture was pelleted and resuspended in sterile, distilled water and the OD660 measured again. Each transformant was then diluted to an OD660=0.1. Four 1/10 serial dilutions of each culture were prepared in sterile water (for a total of 5 solutions). 10 μL of each dilution was spotted in series onto several SD-ura-his agar plates containing 1 mM 3-aminotriazole and the indicated steroid.

PRO0 = settings: cited from earlier work
[2] = test system: LexA-based TF-biosensors with DIG1 and B42; assay: Luciferase reporter assay in yeast with LexA-based TF-biosensor; type: cell-based, Saccharomyces cerevisiae; settings: reporter promoter containing LexA-binding sites
Procedure: Yeast strains containing either a plasmid-borne or integrated luciferase reporter were transformed with p16C plasmids encoding TF-biosensors. Transformants were grown in triplicate overnight at 30° C. in SD-ura media containing 2% glucose in sterile glass test tubes on a roller drum. After ˜16 hours of growth, OD600 of each sample was measured and cultures were back diluted to OD600=0.2 in fresh SD-ura media containing steroid dissolved in DMSO or a DMSO control (1% DMSO final). Cultures were grown at 30° C. on roller drum for 8 hrs prior to taking readings. Measurement of luciferase activity was adapted from a previously reported protocol^58. 100 uL of each culture was transferred to a 96-well white NUNC plate. 100 uL of 2 mM D-luciferin in 0.1 M sodium citrate (pH 4.5) was added to each well of the plate and luminescence was measured on a Victor 3V after 5 minutes.

[3] = test system: G-DIG1-V-Matα2 biosensor with pUAS::Luc in transgenic Arabidopsis plants; assay: TF-biosensor assays in transgenic Arabidopsis plants; type: in vivo, Arabidopsis thaliana
Procedure: Transgenic plants expressing the digoxin biosensor genetic circuit were tested for digoxigenin-induced luciferase expression by placing 14-16 day old plants in liquid MS (-sucrose) media supplemented with 0.1 mM digoxigenin in 24-well plates, and incubated in a growth chamber at 24° C., […] light.
Luciferase expression was measured by imaging plants with a Stanford Photonics XR/MEGA-10 ICCD Camera, after spraying luciferin and dark adapting plants for 30 minutes. Luciferase expression was quantified using Piper Control (v.2.6.17) software. Plants from line KJM58-10 were used to test for specificity of induction by incubating plants, as described above, in 0.1 mM digoxigenin, 0.1 mM digitoxigenin, and 0.02 mM β-estradiol. All chemicals were obtained from Sigma-Aldrich (St. Louis, Mo.).

DIG10.3 (DIG0) = settings: cited from earlier work
[4] = test system: DIG-Cas9 fusion in K562 cell line containing a broken EGFP; assay: TF-biosensor-Cas9 assay (EGFP repair); type: cell-based, human; settings: 48-hour incubation
Procedure: Construct integration was carried out as for the Cas9 experiments for EGFP assays, except that the constructs were integrated into K562 containing a broken EGFP reporter construct. Introduction of an engineered nuclease along with a donor oligonucleotide can correct the EGFP and produce fluorescent cells. Upon successful integration (˜10 days after initial transfection), 500,000 cells were nucleofected with 500 ng of guide RNA (sgRNA) and 2 μg of donor oligonucleotide. Nucleofected cells were then collected with 200 μL of media and 50 μL aliquots were added to wells containing 950 μL of media. Each nucleofection was split into four separate wells containing 1 μM of digoxigenin, 25 μM of progesterone, or no small molecule. Forty-eight hours later, cells were analyzed using flow cytometry and the percentage of EGFP positive cells was determined.

## CC(=O)[C@H]1CC[C@H]2[C@@H]3CC=C4C[C@@H](O)CC[C@]4(C)[C@H]3CC[C@]12C [pregnenolone]
[1]
  growth of histidine auxotrophic reporter strain: not

## CC(=O)[C@H]1CC[C@H]2[C@@H]3CCC4=CC(=O)CC[C@]4(C)[C@H]3CC[C@]12C [progesterone]
[1]
  growth of histidine auxotrophic reporter strain: stimulated
PRO0
  affinity of binding to PRO0: nanomolar

## C[C@H]1O[C@@H](O[C@H]2[C@@H](O)C[C@H](O[C@H]3[C@@H](O)C[C@H](O[C@H]4CC[C@@]5(C)[C@H](CC[C@@H]6[C@@H]5C[C@@H](O)[C@]5(C)[C@@H](C7=CC(=O)OC7)CC[C@]65O)C4)O[C@@H]3C)O[C@@H]2C)C[C@H](O)[C@@H]1O [digoxin]
[2]
  activation in the presence of digoxin: ~40 fold
[3]; transgenic Arabidopsis plants
  induction of the biosensor: capable of inducing
DIG10.3 (DIG0)
  affinity of binding to DIG10.3 (DIG0): picomolar

## C[C@]12CC[C@H](O)C[C@H]1CC[C@@H]1[C@@H]2C[C@@H](O)[C@]2(C)[C@@H](C3=CC(=O)OC3)CC[C@]12O [digoxigenin]
[4]
  increase in GFP positive cells relative to the mock control: ~18 fold
[3]; after 42 hours, T1 transgenic plants
  induction of luciferase activity compared to the uninduced control: 30-50 fold
